# Laboratory results reported in PMC9230136 (Pharmaceutics, 2022).
# Key:
# HeLa = assay: Antiproliferative assay (resazurin, 72 h); type: cell-based, human; conditions: Homo sapiens, HeLa
# Protocol: (§1) Colon adenocarcinoma (HT-29) and T-cell leukemia (Jurkat) cells were grown in RPMI-1640 medium (Gibco, Milano, Italy). Promyelocytic leukemia cells (HL-60), non-small cell lung carcinoma (A549), cervix carcinoma (HeLa) and breast adenocarcinoma (MDA-MB-231) cells were grown in DMEM medium (Gibco, Milano, Italy). Both media were supplemented with 115 units/mL of penicillin G (Gibco, Milano, Italy), 115 μg/mL of streptomycin (Invitrogen, Milano, Italy) and 10% fetal bovine serum (Invitrogen, Milano, Italy). All the cell lines used were purchased from the American Type Culture Collection (ATCC, Manassas, VA, USA). Stock solutions (10 mM) of the compounds were obtained by dissolving them in DMSO.
# (§2) The cells were seeded in 96-well plates at the appropriate density for each cell line. After 24 h, the cells were treated by performing serial 5-fold dilutions of the tested compounds starting from a concentration of 10 μM. All experimental conditions were tested in triplicate for statistical analysis. The plates were incubated for 72 h at 37 °C in a humidified 5% CO2 atmosphere. At the end of the incubation period, 10 μL of 100 μg/mL resazurin solution was added to each well; then, the plate was re-incubated for 3–4 h. The fluorescence of the wells in each plate was monitored using a Spark 10 M spectrophotometer (Tecan Group Ltd., Mannedorf, Switzerland) with a 535 nm excitation wavelength and a 600 nm emission wavelength.
# HT-29 = assay: Antiproliferative assay (resazurin, 72 h); type: cell-based, human; conditions: Homo sapiens, HT-29, mean ± SE, 72 h
# Protocol: as §1, §2
# MDA-MB-231 = assay: Antiproliferative assay (resazurin, 72 h); type: cell-based, human; conditions: for IC50: Homo sapiens, MDA-MB-231, mean ± SE, 72 h
# Protocol: as §1, §2
# A549 = assay: Antiproliferative assay (resazurin, 72 h); type: cell-based, human; conditions: Homo sapiens
# Protocol: as §1, §2
# Jurkat = assay: Antiproliferative assay (resazurin, 72 h); type: cell-based, human; conditions: Homo sapiens, Jurkat, mean ± SE, 72 h
# Protocol: as §1, §2
Structure (SMILES),melting point,"IC50 (HeLa; Table 1, mean ± SE)",IC50 (HT-29; Table 1),IC50 (MDA-MB-231; Table 1),"IC50 (A549; A549, Table 1, mean ± SE)",IC50 (Jurkat; Table 1),"IC50 (HeLa; Table 2, mean ± SE)",IC50 (HT-29; Table 2),IC50 (MDA-MB-231; Table 2),"IC50 (A549; A549, Table 2, mean ± SE)",IC50 (Jurkat; Table 2),fold more active than 7i (MDA-MB-231; MDA-MB-231 cells)
"Cc1cc(Nc2cccc(Cl)c2)n2nc(NCc3ccc(Cl)cc3)nc2n1 [Compound 8b, N^7-(3-Chlorophenyl)-N^2-(4-chlorobenzyl)-5-methyl-[1,2,4]triazolo [1,5-a]pyrimidine-2,7-diamine]",158 to 160 °C,,,,,,810 ± 150 nM,1640 ± 220 nM,1880 ± 80 nM,1740 ± 130 nM,880 ± 500 nM,
"COc1cc(Nc2cc(C)nc3nc(NCCc4ccc(F)cc4)nn23)cc(OC)c1OC [Compound 7aa, N^2-(4-Fluorophenethyl)-5-methyl-N^7-(3,4,5-trimethoxyphenyl)-[1,2,4]triazolo [1,5-a]pyrimidine-2,7-diamine]",150 to 152 °C,2500 ± 270 nM,2830 ± 220 nM,> 10000 nM,> 10000 nM,9610 ± 890 nM,,,,,,
"Cc1cc(Nc2cccc(Cl)c2)n2nc(NCc3ccc4c(c3)OCO4)nc2n1 [Compound 8j, N^2-(Benzo[d][1,3]dioxol-5-ylmethyl)-N^7-(3-chlorophenyl)-5-methyl-[1,2,4]triazolo [1,5-a]pyrimidine-2,7-diamine]",164 to 166 °C,,,,,,960 ± 460 nM,2660 ± 660 nM,4820 ± 1910 nM,2170 ± 10 nM,1660 ± 480 nM,
"Cc1cc(Nc2cccc(Br)c2)n2nc(NCc3ccc4c(c3)OCO4)nc2n1 [Compound 8m, N^2-(Benzo[d][1,3]dioxol-5-ylmethyl)-N^7-(3-bromophenyl)-5-methyl-[1,2,4]triazolo [1,5-a]pyrimidine-2,7-diamine]",150 to 152 °C,,,,,,1280 ± 300 nM,2240 ± 120 nM,3990 ± 60 nM,2320 ± 230 nM,1180 ± 110 nM,
"COc1ccccc1CNc1nc2nc(C)cc(Nc3cc(OC)c(OC)c(OC)c3)n2n1 [Compound 7u, N^2-(2-Methoxybenzyl)-5-methyl-N^7-(3,4,5-trimethoxyphenyl)-[1,2,4]triazolo [1,5-a]pyrimidine-2,7-diamine]",208 to 210 °C,> 10000 nM,> 10000 nM,4400 ± 260 nM,> 10000 nM,> 10000 nM,,,,,,
"Cc1cc(Nc2ccc(C(F)(F)F)cc2)n2nc(NCc3ccc4c(c3)OCO4)nc2n1 [Compound 8n, N^2-(Benzo[d][1,3]dioxol-5-ylmethyl)-N^7-(4-trifluoromethylphenyl)-5-methyl-[1,2,4]triazolo [1,5-a]pyrimidine-2,7-diamine]",158 to 160 °C,,,,,,3640 ± 1010 nM,5180 ± 270 nM,6130 ± 1460 nM,3270 ± 570 nM,1600 ± 290 nM,
"COc1cc(Nc2cc(C)nc3nc(NCc4cccnc4)nn23)cc(OC)c1OC [Compound 7k, 5-Methyl-N^2-(pyridin-3-ylmethyl)-N^7-(3,4,5-trimethoxyphenyl)-[1,2,4]triazolo [1,5-a]pyrimidine-2,7-diamine]",178 to 180 °C,2980 ± 320 nM,3570 ± 480 nM,560 ± 67 nM,5280 ± 650 nM,6850 ± 630 nM,,,,,,
"COc1cc(Nc2cc(C)nc3nc(Nc4ccc(F)cc4)nn23)cc(OC)c1OC [Compound 7e, N2-(4-Fluorophenyl)-5-methyl-N7-(3,4,5-trimethoxyphenyl)-[1,2,4]triazolo [1,5-a]pyrimidine-2,7-diamine]",247 °C,390 ± 20 nM,690 ± 60 nM,710 ± 70 nM,1020 ± 80 nM,820 ± 1 nM,,,,,,
"COc1cccc(CNc2nc3nc(C)cc(Nc4cc(OC)c(OC)c(OC)c4)n3n2)c1 [Compound 7t, N^2-(3-Methoxybenzyl)-5-methyl-N^7-(3,4,5-trimethoxyphenyl)-[1,2,4]triazolo [1,5-a]pyrimidine-2,7-diamine]",150 to 152 °C,880 ± 90 nM,1040 ± 80 nM,1780 ± 150 nM,1650 ± 140 nM,1650 ± 110 nM,,,,,,
"COc1ccc(CCNc2nc3nc(C)cc(Nc4cc(OC)c(OC)c(OC)c4)n3n2)cc1 [Compound 7ac, N^2-(4-Methoxyphenethyl)-5-methyl-N^7-(3,4,5-trimethoxyphenyl)-[1,2,4]triazolo [1,5-a]pyrimidine-2,7-diamine]",214 to 216 °C,5050 ± 630 nM,6880 ± 490 nM,1650 ± 190 nM,8880 ± 880 nM,9590 ± 1170 nM,,,,,,

# The next lines start with results.
melting point,"IC50 (HeLa; Table 1, mean ± SE)",IC50 (HT-29; Table 1),IC50 (MDA-MB-231; Table 1),"IC50 (A549; A549, Table 1, mean ± SE)",IC50 (Jurkat; Table 1),"IC50 (HeLa; Table 2, mean ± SE)",IC50 (HT-29; Table 2),IC50 (MDA-MB-231; Table 2),"IC50 (A549; A549, Table 2, mean ± SE)",IC50 (Jurkat; Table 2),Structure (SMILES),fold more active than 7i (MDA-MB-231; MDA-MB-231 cells)
162 to 164 °C,1610 ± 130 nM,3460 ± 370 nM,1680 ± 180 nM,3880 ± 280 nM,7020 ± 620 nM,,,,,,"COc1cc(Nc2cc(C)nc3nc(NCc4cccc(C)c4)nn23)cc(OC)c1OC [Compound 7q, 5-Methyl-N^2-(3-methylbenzyl)-N^7-(3,4,5-trimethoxyphenyl)-[1,2,4]triazolo [1,5-a]pyrimidine-2,7-diamine]",
194 to 196 °C,560 ± 70 nM,> 10000 nM,1220 ± 150 nM,1000 ± 90 nM,1220 ± 90 nM,,,,,,"COc1ccc(CNc2nc3nc(C)cc(Nc4cc(OC)c(OC)c(OC)c4)n3n2)cc1OC [Compound 7v, N^2-(3,4-Dimethoxybenzyl)-5-methyl-N^7-(3,4,5-trimethoxyphenyl)-[1,2,4]triazolo [1,5-a]pyrimidine-2,7-diamine]",
180 to 182 °C,,,,,,7150 ± 600 nM,7130 ± 870 nM,9820 ± 860 nM,6260 ± 2020 nM,7600 ± 60 nM,"Cc1cc(Nc2cccc(C(F)(F)F)c2)n2nc(NCc3ccc4c(c3)OCO4)nc2n1 [Compound 8o, N^2-(Benzo[d][1,3]dioxol-5-ylmethyl)-N^7-(3-trifluoromethylphenyl)-5-methyl-[1,2,4]triazolo [1,5-a]pyrimidine-2,7-diamine]",
215 °C,520 ± 30 nM,920 ± 90 nM,1170 ± 130 nM,3760 ± 140 nM,1010 ± 130 nM,,,,,,"COc1ccc(Nc2nc3nc(C)cc(Nc4cc(OC)c(OC)c(OC)c4)n3n2)cc1 [Compound 7h, N2-(4-Methoxyphenyl)-5-methyl-N7-(3,4,5-trimethoxyphenyl)-[1,2,4]triazolo [1,5-a]pyrimidine-2,7-diamine]",
241 °C,520 ± 60 nM,820 ± 70 nM,1430 ± 140 nM,2300 ± 120 nM,590 ± 10 nM,,,,,,"COc1cc(Nc2cc(C)nc3nc(Nc4ccccc4)nn23)cc(OC)c1OC [Compound 7d, 5-Methyl-N2-phenyl-N7-(3,4,5-trimethoxyphenyl)-[1,2,4]triazolo [1,5-a]pyrimidine-2,7-diamine]",
184 to 186 °C,3010 ± 300 nM,2530 ± 250 nM,59 ± 10 nM,> 10000 nM,9640 ± 800 nM,,,,,,"COc1cc(Nc2cc(C)nc3nc(NCc4ccncc4)nn23)cc(OC)c1OC [Compound 7j, 5-Methyl-N^2-(pyridin-4-ylmethyl)-N^7-(3,4,5-trimethoxyphenyl)-[1,2,4]triazolo [1,5-a]pyrimidine-2,7-diamine]",46 fold
196 to 198 °C,5810 ± 480 nM,> 10000 nM,> 10000 nM,> 10000 nM,5940 ± 500 nM,,,,,,"COc1cc(Nc2cc(C)nc3nc(NCCc4ccc(Cl)cc4)nn23)cc(OC)c1OC [Compound 7ab, N^2-(4-Chlorophenethyl)-5-methyl-N^7-(3,4,5-trimethoxyphenyl)-[1,2,4]triazolo [1,5-a]pyrimidine-2,7-diamine]",
190 to 192 °C,,,,,,420 ± 50 nM,490 ± 60 nM,1710 ± 60 nM,610 ± 200 nM,500 ± 60 nM,"C#Cc1cccc(Nc2cc(C)nc3nc(NCc4ccc(Cl)cc4)nn23)c1 [Compound 8c, N^7-(3-Ethynylphenyl)-N^2-(4-chlorobenzyl)-5-methyl-[1,2,4]triazolo [1,5-a]pyrimidine-2,7-diamine]",
165 to 168 °C,,,,,,1600 ± 70 nM,2080 ± 140 nM,3090 ± 570 nM,1780 ± 510 nM,2380 ± 180 nM,"C#Cc1cccc(Nc2cc(C)nc3nc(NCc4ccc5c(c4)OCO5)nn23)c1 [Compound 8p, N^2-(Benzo[d][1,3]dioxol-5-ylmethyl)-N^7-(3-ethynylphenyl)-5-methyl-[1,2,4]triazolo [1,5-a]pyrimidine-2,7-diamine]",
176 to 178 °C,930 ± 20 nM,1530 ± 160 nM,77 ± 10 nM,2180 ± 310 nM,5550 ± 480 nM,,,,,,"COc1cc(Nc2cc(C)nc3nc(NCc4cccc(F)c4)nn23)cc(OC)c1OC [Compound 7m, N^2-(3-Fluorobenzyl)-5-methyl-N^7-(3,4,5-trimethoxyphenyl)-[1,2,4]triazolo [1,5-a]pyrimidine-2,7-diamine]",
